# Test results published in article PMC4053396, “Cloning, expression and biochemical characterization of the cholesterol oxidase CgChoA from Chryseobacterium gleum” (BMC Biotechnology, 2014).
# T1: CgChoA (Chryseobacterium gleum, UniProt A0ABP2IT22)
# T1 construct: gene HMPREF0204_11499
# T1 sequence (A0ABP2IT22 1-528): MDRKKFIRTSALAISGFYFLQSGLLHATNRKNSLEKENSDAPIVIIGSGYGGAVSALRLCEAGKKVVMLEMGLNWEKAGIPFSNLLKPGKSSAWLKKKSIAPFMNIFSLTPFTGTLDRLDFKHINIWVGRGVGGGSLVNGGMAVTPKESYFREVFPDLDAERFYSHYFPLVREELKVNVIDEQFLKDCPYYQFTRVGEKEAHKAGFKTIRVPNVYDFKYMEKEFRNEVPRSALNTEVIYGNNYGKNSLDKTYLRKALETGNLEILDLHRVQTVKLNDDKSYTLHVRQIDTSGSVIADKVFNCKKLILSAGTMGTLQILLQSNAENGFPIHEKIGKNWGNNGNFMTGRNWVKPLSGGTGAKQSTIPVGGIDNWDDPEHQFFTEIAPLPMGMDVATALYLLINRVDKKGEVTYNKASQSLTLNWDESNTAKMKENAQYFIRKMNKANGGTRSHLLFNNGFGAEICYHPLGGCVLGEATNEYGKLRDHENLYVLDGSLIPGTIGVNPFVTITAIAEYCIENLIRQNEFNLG
# What was measured:
# CgChoA = target: T1, CgChoA; assay: UV-vis spectrum of purified protein and of supernatant after boiling; format: binding; settings: co-purified cofactor; non-covalently bound
# [1] = substrate: CC(C)CCC[C@@H](C)[C@H]1CC[C@H]2[C@@H]3CC=C4C[C@@H](O)CC[C@]4(C)[C@H]3CC[C@]12C; assay: HRP-coupled H2O2 assay, initial rates; format: biochemical, Chryseobacterium gleum; settings: cholesterol dispersed in water with taurocholate as sole surfactant, 0.011 M MOPS pH 6.75, 35°C, O2 as co-substrate
Molecule,UV-vis spectrum of purified protein and of supernatant after boiling (CgChoA),Km [1] [µM]
Cc1cc2nc3c(=O)[nH]c(=O)nc-3n(C[C@H](O)[C@H](O)[C@H](O)COP(=O)(O)OP(=O)(O)OC[C@H]3O[C@@H](n4cnc5c(N)ncnc54)[C@H](O)[C@@H]3O)c2cc1C [FAD],Only FAD that is non-covalently associated with the enzyme is detectable by this method,
CgChoA (Chryseobacterium gleum ATCC 35910) (protein) MDRKKFIRTSALAISGFYFLQSGLLHATNRKNSLEKENSDAPIVIIGSGYGGAVSALRLCEAGKKVVMLEMGLNWEKAGIPFSNLLKPGKSSAWLKKKSIAPFMNIFSLTPFTGTLDRLDFKHINIWVGRGVGGGSLVNGGMAVTPKESYFREVFPDLDAERFYSHYFPLVREELKVNVIDEQFLKDCPYYQFTRVGEKEAHKAGFKTIRVPNVYDFKYMEKEFRNEVPRSALNTEVIYGNNYGKNSLDKTYLRKALETGNLEILDLHRVQTVKLNDDKSYTLHVRQIDTSGSVIADKVFNCKKLILSAGTMGTLQILLQSNAENGFPIHEKIGKNWGNNGNFMTGRNWVKPLSGGTGAKQSTIPVGGIDNWDDPEHQFFTEIAPLPMGMDVATALYLLINRVDKKGEVTYNKASQSLTLNWDESNTAKMKENAQYFIRKMNKANGGTRSHLLFNNGFGAEICYHPLGGCVLGEATNEYGKLRDHENLYVLDGSLIPGTIGVNPFVTITAIAEYCIENLIRQNEFNLG,,500
